Patent US20060178357A1, “Chphalosporin-derived mercaptans as inhibitors of serine and metallo-beta-lactamases” (priority 2005, published 2006)

What was measured:
[1] = test system: class B β-lactamases (L1 metallo-β-lactamase derived from Stenotrophomonas maltophilia; metallo-β-lactamase derived from Bacillus cereus); assay: β-lactamase inhibition (IC50, nitrocefin hydrolysis) against class B metallo-β-lactamases; assay type: biochemical; conditions: 4 min incubation of inhibitor and enzyme, substrate nitrocefin, 480 nm; statement in words summarising Table 1
Experimental: (§1) Representative compounds of the invention were evaluated as inhibitors of two serine β-lactamases: Enterobacter cloacae P99 (class C), TEM-1 (class A), as well as two class B enzymes: the L1 metallo-β-lactamse derived from Stenotrophomonas maltophilia) and the metallo-β-lactamase derived from the Bacillus cereus microorganism. The IC50 value of each compound was determined as follows. Assay method involves 4 min incubation of a solution of inhibitor and enzyme (0.1 to 1 μM in enzyme), followed by transfer of an aliquot into a dilute solution of the substrate nitrocefin. Hydrolysis is monitored spectrophotometrically at 480 nm for 1 min. The rate is constant throughout this period. Error is ±10%, based on multiple experiments.

[2] = molecular target: Enterobacter cloacae P99 (class C) β-lactamase (Enterobacter cloacae, UniProt P05364); assay: β-lactamase inhibition (IC50, nitrocefin hydrolysis) against class C serine β-lactamase; assay type: biochemical; conditions: 4 min incubation of inhibitor and enzyme, substrate nitrocefin, 480 nm; comparison in words summarising Table 1
Experimental: as §1

Chain of Enterobacter cloacae P99 (class C) β-lactamase (P05364 21-381): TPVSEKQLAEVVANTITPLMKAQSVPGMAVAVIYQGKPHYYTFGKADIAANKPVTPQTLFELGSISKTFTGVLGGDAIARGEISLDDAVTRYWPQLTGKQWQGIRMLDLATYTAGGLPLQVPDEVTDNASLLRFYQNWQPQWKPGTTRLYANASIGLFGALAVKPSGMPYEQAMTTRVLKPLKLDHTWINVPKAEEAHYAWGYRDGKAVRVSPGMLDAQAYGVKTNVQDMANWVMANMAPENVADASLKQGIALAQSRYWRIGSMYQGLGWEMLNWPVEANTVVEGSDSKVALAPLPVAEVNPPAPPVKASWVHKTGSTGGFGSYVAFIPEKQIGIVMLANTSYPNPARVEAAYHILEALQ

SMILES | ability to inhibit the class B β-lactamases [1] | inhibition activity against a representative class C β-lactamase relative to tazobactam [2]
CC(=O)OCC1=C(C(=O)[O-])N2C(=O)C(CS)C2SC1.[Na+] (stereo not drawn) [Compound 12, Sodium salt of 7β-(mercaptomethyl)cephalosporanate] | possess the ability to inhibit the class B β-lactamases | –
CC(=O)OCC1=C(C(=O)[O-])N2C(=O)C(CS)C2S(=O)(=O)C1.[Na+] (stereo not drawn) [Compound 15, Sodium salt of 7β-(mercaptomethyl)cephalosporanate-1,1-dioxide] | possess the ability to inhibit the class B β-lactamases | –
CC(=O)OCC1=C(C(=O)[O-])N2C(=O)C(CS)C2[S+]([O-])C1.[Na+] (stereo not drawn) [Compound 17, Sodium salt of 7β-(mercaptomethyl)cephalosporanate-1β-oxide] | possess the ability to inhibit the class B β-lactamases | –
CC(=O)OCC1=C(C(=O)[O-])N2C(=O)C(CS)C2[S+]([O-])C1.[Na+] (stereo not drawn) [Compound 19, Sodium salt of 7α-(mercaptomethyl)cephalosporanate-1β-oxide] | possess the ability to inhibit the class B β-lactamases | –
CC(=O)OCC1=C(C(=O)[O-])N2C(=O)C(CS)C2S(=O)(=O)C1.[Na+] (stereo not drawn) [Compound 22, Sodium salt of 7α-(mercaptomethyl)cephalosporanate-1,1-dioxide] | possess the ability to inhibit the class B β-lactamases | superior to tazobactam
CC(=O)OCC1=C(C(=O)[O-])N2C(=O)C(CS)C2SC1.[Na+] (stereo not drawn) [Compound 26, Sodium salt of 7α-(mercaptomethyl)cephalosporanate] | possess the ability to inhibit the class B β-lactamases | superior to tazobactam
CC(=O)OCC1=C(C(=O)[O-])N2C(=O)C(CS)C2[S+]([O-])C1.[Na+] (stereo not drawn) [Compound 29, Sodium salt of 7α-(mercaptomethyl)cephalosporanate-1α-oxide] | possess the ability to inhibit the class B β-lactamases | superior to tazobactam
C[C@]1(Cn2ccnn2)[C@H](C(=O)O)N2C(=O)C[C@H]2S1(=O)=O [tazobactam, reference compound] | does not possess such ability | –
